Among the test systems are A498 renal; ACHN renal; CCRF-CEM leukemia; EKVX NSCLC; MDA-MB-435; NCI-H23 lung; OVCAR-3 ovarian; OVCAR-8 ovarian; PC-3 prostate; RXF 393 renal; UACC-62 melanoma; LOX IMVI melanoma.
Experiment in all cases: growth of human tumour cells (NCI), 48 h

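Method: 48-hour compound exposure of cells in 96-well plates, five concentrations, linear interpolation of endpoints. TGI denotes the concentration required for complete inhibition of growth.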 Where a SMILES comes first, the peptide text is derived from it. The star is where a group is joined. Boc = CC(C)(C)OC(=O)*; OtBu = CC(C)(C)O*

The source of these data is PubChem BioAssay (NCI).

Regarding `CC(C)c1cc(C(C)C)c(S(=O)(=O)N/N=C2\CC3CCC2(C)C3(C)C)c(C(C)C)c1` (stereo unspecified), the TGI in the experiment with A498 renal was 32.7 µM; in the experiment with ACHN renal, above 100 µM; with CCRF-CEM leukemia, 22.8 µM; in the experiment with EKVX NSCLC it was 71.5 µM; in the experiment with MDA-MB-435 it was above 100 µM; in the experiment with NCI-H23 lung, above 100 µM. Further, the TGI in the experiment with OVCAR-3 ovarian is above 100 µM; in the experiment with OVCAR-8 ovarian, above 100 µM; in the experiment with PC-3 prostate, above 100 µM; with RXF 393 renal, 58.5 µM; in the experiment on UACC-62 melanoma it was above 100 µM.
As for `COc1ccc(CCN2C(=O)C(=O)C(C(=O)c3ccccc3)C2c2ccccc2)cc1OC` (stereo unspecified), the TGI in the experiment on A498 renal, in the experiment with ACHN renal, in the experiment with CCRF-CEM leukemia, with EKVX NSCLC, in the experiment with LOX IMVI melanoma and with MDA-MB-435 was above 100 µM throughout. The TGI in the experiment on NCI-H23 lung, in the experiment with OVCAR-3 ovarian, in the experiment with OVCAR-8 ovarian, with PC-3 prostate, in the experiment on RXF 393 renal and in the experiment with UACC-62 melanoma was above 100 µM in each case.
With `Nc1ccc(Oc2ccc(C3(c4ccc(Oc5ccc(N)c(O)c5)cc4)C4CC5CC(C4)CC3C5)cc2)cc1O`, the TGI with A498 renal amounted to 31 µM; in the experiment on ACHN renal it was 3.18 µM; with CCRF-CEM leukemia, 6.47 µM; in the experiment on EKVX NSCLC, 6.16 µM; in the experiment on MDA-MB-435 it was 5.22 µM; with OVCAR-3 ovarian, 3.35 µM. Moreover, the TGI in the experiment with PC-3 prostate was 3.18 µM; in the experiment with RXF 393 renal, 4.51 µM; in the experiment with UACC-62 melanoma it was 7.68 µM.
For the molecule `COC(=O)[C@]1(CCC(C)=O)C(=O)C=CN([C@H](C)c2ccccc2)[C@@H]1Cc1ccc(OC)c(OCc2ccccc2)c1I`, the TGI with A498 renal is 50.1 µM; in the experiment with ACHN renal it was 71.8 µM; in the experiment with CCRF-CEM leukemia it was above 100 µM; with EKVX NSCLC, above 100 µM; in the experiment with LOX IMVI melanoma it was 31 µM; in the experiment on MDA-MB-435, 42.9 µM. Besides, the TGI in the experiment on NCI-H23 lung was 49.6 µM; with OVCAR-3 ovarian, 31 µM; in the experiment with OVCAR-8 ovarian, 85.2 µM; in the experiment on PC-3 prostate, 74.5 µM; in the experiment with RXF 393 renal, 23.6 µM; with UACC-62 melanoma, 29.2 µM.
Take `COC(=O)C#CC1(O)C=CC(=O)C=C1`: the TGI with A498 renal is above 100 µM; in the experiment on ACHN renal, 10.1 µM; in the experiment on CCRF-CEM leukemia it was 0.758 µM; in the experiment with EKVX NSCLC, 24.5 µM; in the experiment on LOX IMVI melanoma it was 1.9 µM; in the experiment on MDA-MB-435, 1.28 µM. Also, the TGI with NCI-H23 lung worked out at 6.28 µM; in the experiment on OVCAR-3 ovarian, 1.6 µM; in the experiment with OVCAR-8 ovarian, 15.4 µM; in the experiment with PC-3 prostate, 5.76 µM; with RXF 393 renal, 3.76 µM; in the experiment with UACC-62 melanoma, 2.64 µM.
For the molecule `COC1=C(OC)C(=O)c2cc(C)c(=O)c(C)cc2C1=O`, the TGI was 40.7 µM with A498 renal; 31.1 µM in the experiment with ACHN renal; 7.06 µM in the experiment on CCRF-CEM leukemia; 31.5 µM in the experiment with EKVX NSCLC; above 39 µM in the experiment on LOX IMVI melanoma; 3.49 µM in the experiment on MDA-MB-435. The TGI with NCI-H23 lung came to 34.2 µM; with OVCAR-3 ovarian it was 24 µM; with OVCAR-8 ovarian, 35.7 µM; in the experiment on PC-3 prostate it was 49.6 µM; with RXF 393 renal, 29.4 µM; in the experiment with UACC-62 melanoma, 27.7 µM.
As to `CCOC(=O)c1sc(N)nc1N1CCCC1`, the TGI in the experiment on A498 renal, in the experiment with ACHN renal, in the experiment on CCRF-CEM leukemia, in the experiment on EKVX NSCLC, with LOX IMVI melanoma and in the experiment with MDA-MB-435 was above 100 µM throughout. Besides, the TGI with NCI-H23 lung, in the experiment on OVCAR-3 ovarian, in the experiment with OVCAR-8 ovarian, in the experiment with PC-3 prostate, in the experiment with RXF 393 renal and with UACC-62 melanoma was above 100 µM in each case.
`CC(C)(C)OC(=O)CC(NC(=O)OC(C)(C)C)C(=O)NC(Cc1ccccc1)C(N)=O` (stereo unspecified) (Boc-Asp(OtBu)-Phe-NH2; configuration not given here): the TGI with A498 renal, with ACHN renal, with CCRF-CEM leukemia, in the experiment with EKVX NSCLC, in the experiment with LOX IMVI melanoma and in the experiment with MDA-MB-435 was above 100 µM in each case. Further, the TGI in the experiment with NCI-H23 lung, with OVCAR-3 ovarian, in the experiment on OVCAR-8 ovarian, with PC-3 prostate and in the experiment with RXF 393 renal was above 100 µM each time.
In the case of `COC(=O)c1c(C(=O)OC)c2ccccn2c1-c1cc(C)cc2c1C(=O)C=CC2=O`, the TGI in the experiment with A498 renal amounted to 17.5 µM; in the experiment with ACHN renal, 17.2 µM; with CCRF-CEM leukemia it was 3.65 µM; with EKVX NSCLC, 21.7 µM; in the experiment on MDA-MB-435, 16 µM; in the experiment on NCI-H23 lung it was 14.8 µM. Further, the TGI with OVCAR-3 ovarian worked out at 15.6 µM; with OVCAR-8 ovarian, 14.4 µM; in the experiment on PC-3 prostate, 18.5 µM; with RXF 393 renal, 18.5 µM; in the experiment with UACC-62 melanoma, 17.7 µM.
As for `CC(=O)OC1=C(c2ccccc2)S(=O)(=O)c2ccccc21`, the TGI in the experiment with A498 renal, in the experiment on ACHN renal, in the experiment on CCRF-CEM leukemia, in the experiment on EKVX NSCLC, in the experiment on LOX IMVI melanoma and in the experiment on MDA-MB-435 was above 100 µM throughout. Further, the TGI with NCI-H23 lung, in the experiment on OVCAR-3 ovarian, in the experiment with OVCAR-8 ovarian, with PC-3 prostate, with RXF 393 renal and with UACC-62 melanoma was above 100 µM each time.
With `C[C@H]1CC(=O)C[C@@H]2CC[C@@H]3[C@H](CC[C@]4(C)C(OC(=O)c5cccc6c(=O)c7ccccc7[nH]c56)CC[C@@H]34)[C@]21C` (stereo partly specified), the TGI in the experiment with A498 renal is above 100 µM; in the experiment on ACHN renal it was above 100 µM; with CCRF-CEM leukemia, 73.2 µM; with EKVX NSCLC it was above 100 µM; with LOX IMVI melanoma, above 100 µM; with MDA-MB-435, above 100 µM. The TGI was above 100 µM in the experiment with NCI-H23 lung; above 100 µM in the experiment on OVCAR-3 ovarian; 75.9 µM in the experiment on OVCAR-8 ovarian; above 100 µM with PC-3 prostate; above 100 µM in the experiment on RXF 393 renal; 88.3 µM in the experiment on UACC-62 melanoma.
